A short description of series [1]: Maximum absorption wavelength (λmax) of the activated form in chloroform under ultraviolet irradiation. It counts as physicochemical. As to conditions: UV irradiation, 350 nm. How it is done: Two grams of the propargyl alcohol obtained in Step 1 were mixed with 1.25 grams of 2-hydroxydibenzofuran in 200 milliliters of benzene. Twenty milligrams of p-toluenesultonic acid were then added and the mixture was stirred under reflux for 8 hours. The resultant mixture was cooled and washed with 10% aqueous sodium hydroxide. The organic solvent (benzene) was removed using a rotary evaporator. The resulting material was dissolved in hexane and the resulting hexane solution was cooled to yield a recrystallized product.
The recrystallized product formed in Step 2 of Example 1; the 3-(4-biphenytyl)-3-phenyl-8-methoxy-3H-naphtho[2,1b]pyran formed in Comparative Example 1; and a purchased sample of 3,3-diphenyl-3H-naphtho-[2,1b]pyran (identified as Comparative Example 2) were each individually dissolved in chloroform in separate containers. These chloroform dissolved substances were then irradiated with ultraviolet light with a maximum wavelength of 350 manometers and measured for maximum absorption wavelength, λmax. The fade time, T1/2, was then determined for each of the irradiated substances. […] The maximum absorption wavelength and fade time determined for the irradiated substances of Example 1 and Comparative Examples 1-2 are presented in Table 1: […]

Series [2] can be described thus: Fade time (T1/2) of the activated form in chloroform at room temperature. It counts as physicochemical. As to conditions: room temperature (72° F.), absorbance of activated form falls to one half of maximum after isolation from UV. How it is done:
These chloroform dissolved substances were then irradiated with ultraviolet light with a maximum wavelength of 350 manometers and measured for maximum absorption wavelength, λmax. The fade time, T1/2, was then determined for each of the irradiated substances. The fade time for of the chloroform-dissolved substances is defined as the time interval, at room temperature (72° F.), for the absorbance of the activated form of each chloroform-dissolved substance to decrease to one half of the maximum absorbance, after the substance is isolated from the activating source of ultraviolet light.

For series [3] the following is noted: Becker patent; cited from earlier work.

As for `COc1ccc2c3c(ccc2c1)OC(c1ccccc1)(c1ccc(-c2ccccc2)cc1)C=C3` (stereo not shown) [Comparative Example 1, 3-(4-biphenylyl)-3-phenyl-8-methoxy-3H-naphtho[2,1b]pyran], in series [1], the “maximum absorption wavelength, λmax (only or shorter-wavelength maximum)” value is recorded as 484 nanometers.
As for `C1=CC(c2ccccc2)(c2ccccc2)Oc2ccc3ccccc3c21` [Comparative Example 2, 3,3-diphenyl-3H-naphtho-[2,1b]pyran], the “fade time, T1/2” value in series [2] was determined as 13 s. In series [3], the “photochromic at room temperature” value was “photochromic at room temperature”. In addition, the “maximum absorption wavelength, λmax (only or shorter-wavelength maximum)” value in series [1] came out at 434 nanometers.

The record behind these values is patent publication US5869662A, “Photochromic benzopyran compounds” (Vision-Ease Lens, Inc., priority 1997, dated 1999).
